Results: paper PMC7618597, “Dual Nurr1/RXR agonism of valerenic acid and synthetic mimetics enables dimer-selective Nurr1 modulation” (ACS medicinal chemistry letters, 2025)
“And” between values parts separate entries of the source, which are not always exact repeats. Identical values can stand only once.

Experiments:
RXRα = molecular target: T1, RXRα (Homo sapiens, UniProt P19793); test: Gal4-hybrid reporter gene assay, RXRα; format: cell-based; settings: Gal4-hybrid reporter gene assay; for EC50: mean±S.E.M., n≥3
T1 construct: pFA-CMV-hRXRα-LBD; expressed in transfected cells; host or cells: HEK293T
T1 sequence (P19793 227-458 limits assumed): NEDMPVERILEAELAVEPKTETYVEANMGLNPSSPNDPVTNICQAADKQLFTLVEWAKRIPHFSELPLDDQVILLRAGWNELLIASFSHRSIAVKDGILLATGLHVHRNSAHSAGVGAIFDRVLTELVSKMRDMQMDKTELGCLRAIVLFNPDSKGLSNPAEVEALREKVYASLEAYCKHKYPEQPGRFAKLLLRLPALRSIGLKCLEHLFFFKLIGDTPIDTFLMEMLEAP
Protocol: (§1) modified Eagle’s medium (DMEM), high glucose supplemented with 10% fetal calf serum (FCS), sodium pyruvate (1 mM), penicillin (100 U/mL), and streptomycin (100 μg/mL) at 37 °C and 5% CO2 and seeded in 96-well plates (3×10^4 cells/well). After 24 h, the medium was changed to Opti-MEM without supplements, and the cells were transiently transfected using Lipofectamine LTX reagent (Invitrogen) according to the manufacturer’s protocol. Five hours after transfection, the cells were incubated with the test compounds in Opti-MEM supplemented with penicillin (100 U/mL), streptomycin (100 μg/mL), and 0.1% DMSO for 15 h before luciferase activity was measured using the Dual -Glo Luciferase Assay System (Promega) according to the manufacturer’s protocol on a Tecan Spark l uminometer (Tecan Deutschland GmbH, Germany). Firefly luminescence was divided by Renilla luminescence and multiplied by 1000, resulting in relative light units (RLU) to normalize for transfection efficiency and cell growth. Fold activation was obtained by dividing the mean RLU of a sample by the mean RLU of the untreated control. All samples were tested in at least three biologically independent experiments in duplicates. For dose –response curve fitting and calculation of EC50 values, the equation “[Agonist] vs. response – Variable slope (four parameters)” was used in GraphPad Prism (version 5.04, GraphPad Software, La Jolla, CA, USA). […] (10 μM, NR4A) and bexarotene (1 µM, NR2B) served as the positive control. […]
(§2) 150 μM in the same buffer containing 2-4% DMSO) in 21–26 injections (1 × 1 μL and 20 × 4 to 25 × 4 μL) with an injection interval of 120 s. As control experiments, the test compounds were titrated to the buffer, and the buffer was titrated to the protein under otherwise identical conditions. The heat rates of the compound-Nurr1 LBD titrations were analyzed using NanoAnalyze software (TA Instruments, New Castle, DE) with an independent binding model.

[1] = molecular target: T2, full-length Nurr1 homodimer (NurRE) (Homo sapiens, UniProt P43354); test: Full-length Nurr1 reporter gene assay, homodimer response element NurRE; format: cell-based
T2 construct: full-length human nuclear receptor Nurr1 encoded by pcDNA3.1 -hNurr1-NE; host or cells: HEK293T
T2 sequence (P43354 whole entry): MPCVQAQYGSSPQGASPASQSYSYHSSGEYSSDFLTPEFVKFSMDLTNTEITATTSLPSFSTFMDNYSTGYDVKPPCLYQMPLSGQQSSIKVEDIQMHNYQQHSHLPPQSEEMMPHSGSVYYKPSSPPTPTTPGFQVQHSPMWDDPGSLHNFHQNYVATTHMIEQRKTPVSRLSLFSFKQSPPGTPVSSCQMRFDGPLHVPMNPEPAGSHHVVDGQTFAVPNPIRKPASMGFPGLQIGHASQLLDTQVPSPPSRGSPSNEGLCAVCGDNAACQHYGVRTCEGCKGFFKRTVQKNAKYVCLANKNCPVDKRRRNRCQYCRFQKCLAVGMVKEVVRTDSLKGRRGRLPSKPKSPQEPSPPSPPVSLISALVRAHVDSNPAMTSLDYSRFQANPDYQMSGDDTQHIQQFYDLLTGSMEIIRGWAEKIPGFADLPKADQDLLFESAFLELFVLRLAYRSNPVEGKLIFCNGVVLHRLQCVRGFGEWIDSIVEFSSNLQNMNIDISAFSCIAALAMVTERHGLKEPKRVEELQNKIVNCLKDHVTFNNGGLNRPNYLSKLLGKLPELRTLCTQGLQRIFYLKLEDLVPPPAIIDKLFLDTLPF
Protocol: (§3) Based on these findings, we next determined the effects of 2 and 3 on Nurr1 activity in a cellular setting using reporter constructs for the NGFI-B response element (NBRE), the Nur response element (NurRE), and the direct repeat 5 (DR5)[36]. All three response elements are robustly activated by common Nurr1 agonists[4],[31]. […]
(§4) Reporter gene assays for full-length human Nurr1 and RXR. Modulation of full-length human Nurr1 (NR4A2) was studied using pRL-SV40 (1.5 ng/well reporter plasmid) and the previously described4 reporter plasmids pFR-Luc-NBRE (100 ng/well reporter plasmid), pFR-Luc-NurRE (50 ng/well reporter plasmid) or pFR-Luc-DR5 (50 ng/well reporter plasmid). […] Five hours after transfection, the cells wer e incubated with the test compounds in Opti-MEM supplemented with penicillin (100 U/mL), streptomycin (100 μg/mL), and 0.1% DMSO for 15 h before luciferase activity was measured using the Dual-Glo Luciferase Assay System (Promega) according to the manufacturer’s protocol on a Tecan Spark luminometer (Tecan Deutschland GmbH, Germany). Firefly luminescence was divided by Renilla luminescence and multiplied by 1000, resulting in relative light units (RLU) to normalize for transfection efficiency and cell growth. […]

RXRα LBD = molecular target: T3, RXRα LBD (Homo sapiens, UniProt P19793); test: Isothermal titration calorimetry, recombinant RXRα LBD; format: binding; settings: ITC
T3 construct: made in house
T3 sequence (P19793 227-458 limits assumed): T1 sequence (P19793 227-458 limits assumed)
Protocol: Isothermal titration calorimetry. ITC experiments for ligand binding to Nurr1 and RXR were conducted on an Affinity ITC instrument (TA Instruments, New Castle, DE) at 25 °C with a stirring rate of 75 rpm using recombinantly expressed ligand binding domain proteins as described previously5,6. The respective LBD protein (12–25 μM) in buffer (20 mM Tris pH 7.5, 100 mM NaCl, 5% glycerol) containing 2-4% DMSO was titrated with the test compounds (100-150 μM in the same buffer containing 2-4% DMSO) in 21–26 injections (1 × 1 μL and 20 × 4 to 25 × 4 μL) with an injection interval of 120 s. As control experiments, the test compounds were titrated to the buffer, and the buffer was titrated to the protein under otherwise identical conditions. The heat rates of the compound-Nurr1 LBD titrations were analyzed using NanoAnalyze software (TA Instruments, New Castle, DE) with an independent binding model.

Nurr1 = molecular target: T4, Nurr1 (Homo sapiens, UniProt P43354); test: Gal4-hybrid reporter gene assay, Nurr1; format: cell-based; settings: Gal4-hybrid reporter gene assay; for max. act. (Nurr1): max. fold activation; for EC50: mean±S.E.M., n≥3
T4 construct: pFA-CMV-hNurr1-LBD; expressed in transfected cells; host or cells: HEK293T
T4 sequence (P43354 360-595 limits assumed): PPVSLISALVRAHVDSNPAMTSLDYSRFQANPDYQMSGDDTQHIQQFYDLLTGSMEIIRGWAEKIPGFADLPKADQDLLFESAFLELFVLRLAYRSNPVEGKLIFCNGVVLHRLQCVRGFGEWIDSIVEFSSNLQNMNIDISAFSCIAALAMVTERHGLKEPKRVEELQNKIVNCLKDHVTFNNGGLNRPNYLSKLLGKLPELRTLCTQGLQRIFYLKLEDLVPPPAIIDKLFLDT
Protocol: as §1, §2

[2] = molecular target: T5, Nurr1:RXR heterodimer (DR5) (Homo sapiens, UniProt P19793+P43354); test: Full-length Nurr1 reporter gene assay, heterodimer response element DR5; format: cell-based; settings: read-out: EC50, activation of the Nurr1:RXR heterodimer (DR5)
T5 construct: full-length human nuclear receptor Nurr1 encoded by pcDNA3.1 -hNurr1-NE; full length human RXRα encoded by pSG5-hRXR; host or cells: HEK293T
T5 sequence (P43354 whole entry): as the sequence (P43354 whole entry) above
T5 sequence (P19793 whole entry): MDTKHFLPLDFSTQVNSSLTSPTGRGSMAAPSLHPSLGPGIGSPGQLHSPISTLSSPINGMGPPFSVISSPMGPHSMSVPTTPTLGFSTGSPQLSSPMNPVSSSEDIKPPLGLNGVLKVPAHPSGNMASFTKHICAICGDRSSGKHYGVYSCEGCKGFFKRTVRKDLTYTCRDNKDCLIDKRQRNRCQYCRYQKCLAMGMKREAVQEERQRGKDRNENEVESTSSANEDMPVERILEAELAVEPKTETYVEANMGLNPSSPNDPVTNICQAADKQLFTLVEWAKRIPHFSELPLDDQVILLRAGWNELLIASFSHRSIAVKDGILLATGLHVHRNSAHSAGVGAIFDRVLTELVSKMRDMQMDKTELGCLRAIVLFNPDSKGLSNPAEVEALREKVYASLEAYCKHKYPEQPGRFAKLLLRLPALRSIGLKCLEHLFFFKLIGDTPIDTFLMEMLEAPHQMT
Protocol: as §3, §4

Row | Structure (SMILES) | max. act. (RXR) α (RXRα) [fold] | EC50 (RXRα) [nM] | activation on NurRE [1] | Kd (RXRα LBD) [nM] | max. act. (Nurr1) (Nurr1) | EC50 (Nurr1) [nM] | EC50 [2] [nM]
1 | Cc1c2c(n(-c3ccc(CC(=O)O)cc3)c1C)CCC(F)(F)C2 [compound 2] | 69±1 | 970 | no activation was detectable | 1100 | 3.3 fold and 3.3±0.1 fold | 2600 ± 400 | 1000
2 | Cc1c(C)n(-c2ccc(CC(=O)O)cc2)c2ccc(F)cc12 [compound 3] | 83±9 | 400 | no activation was detectable | 200 | 4.3±0.5 fold | 2200 ± 900 | 600
